Reference: patent US20170050957A1, “4-AMINO-6-(HETEROCYCLIC)PICOLINATES AND 6-AMINO-2-(HETEROCYCLIC)PYRIMIDINE-4-CARBOXYLATES AND THEIR USE AS HERBICIDES” (Dow AgroSciences LLC, priority 2013, published 2017)
Like-named read-outs stand apart in the source and are kept apart here.

Tests used:
[1] = test system: Key Grass and Sedge Weeds as well as Grass Crops; test: Post-emergent Test II herbicidal activity (Table 16); type: in vivo; conditions: post-emergence, 336 h, 14 d; for pest or weed control at 35 g/ha: 35 g ai/ha; for pest or weed control at 70 g/ha: 70 g ai/ha; for pest or weed control at 140 g/ha: 140 g ai/ha
Procedure, shortened: (§1)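 Plants at first-second true leaf stage, grown 7-21 d in greenhouse (~15 h photoperiod, 23-29 °C day), were track-sprayed at 187 L/ha with compound in acetone/DMSO/water/isopropanol/crop oil/Triton X-155 at a high rate plus 1/2× to 1/16× dilutions. Injury scored visually after 14 d versus untreated plants, 0 (none) to 100% (complete kill).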

[2] = test system: Key Broadleaf Weed and Crop Species; test: Post-emergent Test II herbicidal activity (Table 15); type: in vivo; conditions: post-emergence, 336 h, 14 d; for pest or weed control at 35 g/ha: 35 g ai/ha; for pest or weed control at 70 g/ha: 70 g ai/ha; for pest or weed control at 140 g/ha: 140 g ai/ha
Procedure, shortened: as §1

[3] = Cyperus esculentus, yellow nutsedge (Cyperus esculentus), read-out: Visual Growth Reduction (%) 14 Days After Application, CYPES
[4] = Echinochloa crus-galli, barnyardgrass (Echinochloa crus-galli), read-out: Visual Growth Reduction (%) 14 Days After Application, ECHCG
[5] = Oryza sativa, rice (Oryza sativa), read-out: Visual Growth Reduction (%) 14 Days After Application, ORYSA
[6] = Setaria faberi, giant foxtail (Setaria faberi), read-out: Visual Growth Reduction (%) 14 Days After Application, SETFA
[7] = Triticum aestivum, wheat, spring (Triticum aestivum), read-out: Visual Growth Reduction (%) 14 Days After Application, TRZAS
[8] = Zea mays, maize, corn (Zea mays), read-out: Visual Growth Reduction (%) 14 Days After Application, ZEAMX
[9] = Abutilon theophrasti, velvetleaf (Abutilon theophrasti), read-out: Visual Growth Reduction (%) 14 Days After Application, ABUTH
[10] = Amaranthus retroflexus, redroot pigweed (Amaranthus retroflexus), read-out: Visual Growth Reduction (%) 14 Days After Application, AMARE
[11] = Brassica napus, oilseed rape, canola (Brassica napus), read-out: Visual Growth Reduction (%) 14 Days After Application, BRSNN
[12] = Chenopodium album, lambsquarters (Chenopodium album), read-out: Visual Growth Reduction (%) 14 Days After Application, CHEAL
[13] = Euphorbia heterophylla, wild poinsettia (Euphorbia heterophylla), read-out: Visual Growth Reduction (%) 14 Days After Application, EPHHL
[14] = Helianthus annuus, sunflower (Helianthus annuus), read-out: Visual Growth Reduction (%) 14 Days After Application, HELAN

| Structure (SMILES) | pest or weed control at 35 g/ha [1, 3] | pest or weed control at 70 g/ha [1, 3] | pest or weed control at 140 g/ha [1, 3] | pest or weed control at 35 g/ha [1, 4] | pest or weed control at 70 g/ha [1, 4] | pest or weed control at 140 g/ha [1, 4] | pest or weed control at 35 g/ha [1, 5] | pest or weed control at 70 g/ha [1, 5] | pest or weed control at 140 g/ha [1, 5] | pest or weed control at 35 g/ha [1, 6] | pest or weed control at 70 g/ha [1, 6] | pest or weed control at 140 g/ha [1, 6] | pest or weed control at 35 g/ha [1, 7] | pest or weed control at 70 g/ha [1, 7] | pest or weed control at 140 g/ha [1, 7] | pest or weed control at 35 g/ha [1, 8] | pest or weed control at 70 g/ha [1, 8] | pest or weed control at 140 g/ha [1, 8] | pest or weed control at 35 g/ha [2, 9] | pest or weed control at 70 g/ha [2, 9] | further results |
| --- | --- | --- | --- | --- | --- | --- | --- | --- | --- | --- | --- | --- | --- | --- | --- | --- | --- | --- | --- | --- | --- |
| COC(=O)c1nc(-c2ccc3cc[nH]c3c2F)c(F)c(N)c1Cl [Compound 1.15, Methyl 4-amino-3-chloro-5-fluoro-6-(7-fluoro-1H-indol-6-yl)picolinate] | 0 to 29% | 60 to 74% | 45 to 59% | 75 to 84% | 85 to 94% | 95 to 100% | 0 to 29% | 0 to 29% | 30 to 44% | 60 to 74% | 60 to 74% | 85 to 94% | 45 to 59% | 60 to 74% | 60 to 74% | 0 to 29% | 30 to 44% | 60 to 74% | 95 to 100% | 95 to 100% | pest or weed control at 140 g/ha [2, 9]: 95 to 100%; pest or weed control at 35 g/ha [2, 10]: 95 to 100%; pest or weed control at 70 g/ha [2, 10]: 95 to 100%; pest or weed control at 140 g/ha [2, 10]: 95 to 100%; pest or weed control at 35 g/ha [2, 11]: 75 to 84%; pest or weed control at 70 g/ha [2, 11]: 95 to 100%; pest or weed control at 140 g/ha [2, 11]: 95 to 100%; pest or weed control at 35 g/ha [2, 12]: 95 to 100%; pest or weed control at 70 g/ha [2, 12]: 95 to 100%; pest or weed control at 140 g/ha [2, 12]: 95 to 100%; pest or weed control at 35 g/ha [2, 13]: 95 to 100%; pest or weed control at 70 g/ha [2, 13]: 95 to 100%; pest or weed control at 140 g/ha [2, 13]: 95 to 100%; pest or weed control at 35 g/ha [2, 14]: 95 to 100%; pest or weed control at 70 g/ha [2, 14]: 95 to 100%; pest or weed control at 140 g/ha [2, 14]: 95 to 100% |
| Nc1c(F)c(-c2ccc3cc[nH]c3c2F)nc(C(=O)O)c1Cl [Compound 1.16, 4-Amino-3-chloro-5-fluoro-6-(7-fluoro-1H-indol-6-yl)picolinic acid] | 0 to 29% | 60 to 74% | 85 to 94% | 75 to 84% | 85 to 94% | 95 to 100% | 30 to 44% | 60 to 74% | 60 to 74% | 60 to 74% | 75 to 84% | 85 to 94% | 30 to 44% | 60 to 74% | 60 to 74% | 0 to 29% | 30 to 44% | 60 to 74% | 85 to 94% | 95 to 100% | pest or weed control at 140 g/ha [2, 9]: 95 to 100%; pest or weed control at 35 g/ha [2, 10]: 95 to 100%; pest or weed control at 70 g/ha [2, 10]: 95 to 100%; pest or weed control at 140 g/ha [2, 10]: 95 to 100%; pest or weed control at 35 g/ha [2, 11]: 95 to 100%; pest or weed control at 70 g/ha [2, 11]: 95 to 100%; pest or weed control at 140 g/ha [2, 11]: 95 to 100%; pest or weed control at 35 g/ha [2, 12]: 95 to 100%; pest or weed control at 70 g/ha [2, 12]: 95 to 100%; pest or weed control at 140 g/ha [2, 12]: 95 to 100%; pest or weed control at 35 g/ha [2, 13]: 95 to 100%; pest or weed control at 70 g/ha [2, 13]: 95 to 100%; pest or weed control at 140 g/ha [2, 13]: 95 to 100%; pest or weed control at 35 g/ha [2, 14]: 95 to 100%; pest or weed control at 70 g/ha [2, 14]: 95 to 100%; pest or weed control at 140 g/ha [2, 14]: 85 to 94% |
| C=Cc1c(C(=O)O)nc(-c2ccc3cc[nH]c3c2F)c(F)c1N [Compound 1.19] | 85 to 94% | 75 to 84% | 95 to 100% | 85 to 94% | 85 to 94% | 95 to 100% | 30 to 44% | 45 to 59% | 60 to 74% | 60 to 74% | 75 to 84% | 85 to 94% | 60 to 74% | 75 to 84% | 75 to 84% | 60 to 74% | 60 to 74% | 85 to 94% | 95 to 100% | 95 to 100% | pest or weed control at 140 g/ha [2, 9]: 95 to 100%; pest or weed control at 35 g/ha [2, 10]: 95 to 100%; pest or weed control at 70 g/ha [2, 10]: 95 to 100%; pest or weed control at 140 g/ha [2, 10]: 95 to 100%; pest or weed control at 35 g/ha [2, 11]: 95 to 100%; pest or weed control at 70 g/ha [2, 11]: 95 to 100%; pest or weed control at 140 g/ha [2, 11]: 95 to 100%; pest or weed control at 35 g/ha [2, 12]: 95 to 100%; pest or weed control at 70 g/ha [2, 12]: 95 to 100%; pest or weed control at 140 g/ha [2, 12]: 95 to 100%; pest or weed control at 35 g/ha [2, 13]: 95 to 100%; pest or weed control at 70 g/ha [2, 13]: 95 to 100%; pest or weed control at 140 g/ha [2, 13]: 95 to 100%; pest or weed control at 35 g/ha [2, 14]: 60 to 74%; pest or weed control at 70 g/ha [2, 14]: 75 to 84%; pest or weed control at 140 g/ha [2, 14]: 95 to 100% |
